Read-outs that look alike come from different tables or passages of the source.
Legend:
WEEV genome replicon [1] = settings: read-out: IC50, inhibition of luciferase expression in WEEV replicon assay; cited from earlier work
[2] = test system: FMV-infected BE(2)-C cells; test: Antiviral assay in FMV-infected BE; format: cell-based
WEEV genome replicon [3] = test: organism not typed; format: cell-based; settings: for IC50: read-out: IC50, inhibition of luciferase expression in WEEV replicon assay

Structure (SMILES)	Activity in WEEV replicon assay, in words (WEEV genome replicon [3])	Loss of potency relative to lead 2 in WEEV replicon assay (WEEV genome replicon [3])	other results
O=C(NCCc1ccncc1)C1CCN(C(=O)c2cc3ccccc3n2Cc2ccc(Cl)cc2)CC1 [compound 2]	–	–	IC50 (WEEV genome replicon [1]): 0.53 ± 0.08 µM; Enhancement of infected cell viability ([2]; 25 μM): two-fold enhancement
CC1(C(=O)NCCc2ccncc2)CCN(C(=O)c2cc3ccccc3n2Cc2ccc(Cl)cc2)CC1 [compound 23]	lost all activity	–	–
O=C(NCCc1ccncc1)C1CCCN(C(=O)c2cc3ccccc3n2Cc2ccc(Cl)cc2)CC1 (centres unmarked) [compound 29]	–	–	Improvement in infected cell viability versus negative control ([2]; 5 μM): nearly two-fold improvement
O=C(NCCc1ccncc1)C1=CCN(C(=O)c2cc3ccccc3n2Cc2ccc(Cl)cc2)CC1 [compound 22]	–	~10 fold	–
O=C(c1cc2ccccc2n1Cc1ccc(Cl)cc1)N1CCC(/C=C/CCc2ccncc2)CC1 [compound 17]	lost all activity	–	IC50 (WEEV genome replicon [3]): > 50 µM
O=C(c1cc2ccccc2n1Cc1ccc(Cl)cc1)N1CCC(/C=C\CCc2ccncc2)CC1 [compound 18]	lost all activity	–	IC50 (WEEV genome replicon [3]): > 50 µM
O=C(NCCc1ccncc1)[C@H]1[C@@H]2CCN(C(=O)c3cc4ccccc4n3Cc3ccc(Cl)cc3)C[C@@H]21 [compound 26]	–	over 20 fold	–
O=C(NCCc1ccncc1)C1CC2(C1)CN(C(=O)c1cc3ccccc3n1Cc1ccc(Cl)cc1)C2 [compound 28]	–	over 20 fold	–

Reference: paper PMC8272561 (Bioorganic & medicinal chemistry letters, 2021)
